Test results as given in US20080021030A1, “Substituted Pyrazoles As Ppar Agonists” (priority 2003, published 2008).

Experiments:
hPPAR alpha = molecular target: T1, hPPAR alpha (Homo sapiens, UniProt Q07869); assay: Transient transfection (transactivation) assay in CV-1 cells, GAL4-PPAR LBD chimera, SPAP reporter; assay type: cell-based; conditions: read-out: EC50 μM HPPARα
T1 construct: expressed in transfected cells; host or cells: CV-1 cells
T1 sequence (Q07869 239-466 limits assumed): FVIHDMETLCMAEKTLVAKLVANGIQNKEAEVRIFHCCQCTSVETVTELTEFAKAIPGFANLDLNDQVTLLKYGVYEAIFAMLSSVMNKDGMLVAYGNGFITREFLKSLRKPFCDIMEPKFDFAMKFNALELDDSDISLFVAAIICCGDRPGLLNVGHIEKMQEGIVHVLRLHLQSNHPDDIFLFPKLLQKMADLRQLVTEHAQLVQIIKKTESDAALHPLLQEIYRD
Method in brief: (§1)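 CV-1 cells transiently co-transfected with GAL4 DBD–human PPAR LBD chimera plus 5×GAL4-site SPAP reporter and β-galactosidase; after 16 h, compound added in DME with 10% delipidated FCS for 24 h. SPAP activity normalised to β-galactosidase; values in μM.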

hPPAR delta = molecular target: T2, hPPAR delta (Homo sapiens, UniProt Q03181); assay: as above; assay type: cell-based; conditions: read-out: EC50 μM HPPARδ
T2 construct: expressed in transfected cells; host or cells: CV-1 cells
T2 sequence (Q03181 211-439 limits assumed): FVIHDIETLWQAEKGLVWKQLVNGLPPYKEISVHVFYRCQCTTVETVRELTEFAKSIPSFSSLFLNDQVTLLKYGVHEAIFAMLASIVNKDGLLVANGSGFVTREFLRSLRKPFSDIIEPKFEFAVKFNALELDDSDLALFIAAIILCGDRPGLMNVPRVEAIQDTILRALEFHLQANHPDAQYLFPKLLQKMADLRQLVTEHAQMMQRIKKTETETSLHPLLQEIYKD
Method in brief: as §1

hPPAR gamma = molecular target: T3, hPPAR gamma (Homo sapiens, UniProt P37231); assay: as above; assay type: cell-based; conditions: read-out: EC50 μM HPPARγ
T3 construct: expressed in transfected cells; host or cells: CV-1 cells
T3 sequence (P37231 238-503 limits assumed): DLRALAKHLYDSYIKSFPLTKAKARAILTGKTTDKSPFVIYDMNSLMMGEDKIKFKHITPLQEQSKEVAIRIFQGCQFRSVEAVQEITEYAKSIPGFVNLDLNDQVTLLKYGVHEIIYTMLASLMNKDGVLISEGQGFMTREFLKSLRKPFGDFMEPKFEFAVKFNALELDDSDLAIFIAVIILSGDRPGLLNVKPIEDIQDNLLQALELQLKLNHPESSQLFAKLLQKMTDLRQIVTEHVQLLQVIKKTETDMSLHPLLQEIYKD
Method in brief: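 CV-1 cells were transiently transfected with a GAL4 DBD–human PPARγ LBD chimera, a 5×GAL4-site SPAP reporter and β-galactosidase. After 16 h, the cells were exposed to compound in DME with 10% delipidated FCS for 24 h. Alkaline phosphatase and β-galactosidase activities were then measured in cell extracts.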

| EC50 (hPPAR alpha) | EC50 (hPPAR delta) | EC50 (hPPAR gamma) | melting point | Structure (SMILES) |
| --- | --- | --- | --- | --- |
| 0.894 µM | > 25 µM | 0.287 µM | 70 °C | C=CCOc1ccc(-c2cc(C(=O)NCc3ccc(OC(C)(C)C(=O)O)c(C)c3)n(C)n2)cc1 [Example 56, 2-methyl-2-[(2-methyl-4-{[({1-methyl-3-[4-(2-propen-1-yloxy)phenyl]-1H-pyrazol-5-yl}carbonyl)amino]methyl}phenyl)oxy]propanoic acid] |
| 0.657 µM | > 8 µM | 0.118 µM | 72 °C | Cc1cc(CNC(=O)c2cc(-c3ccc(OCc4ccccc4)cc3)nn2C)ccc1OC(C)(C)C(=O)O [Example 57, 2-methyl-2-{[2-methyl-4-({[(1-methyl-3-{4-[(phenylmethyl)oxy]phenyl}-1H-pyrazol-5-yl)carbonyl]amino}methyl)phenyl]oxy}propanoic acid] |
